The text below walks through data of patent publication US20030225125A1, “IL-8 receptor antagonists” (SmithKline Beecham Corporation, priority 1999, published 2003).

The assay has as its target T1, recombinant human IL-8 type β receptor (Type II, permissive receptor) (Homo sapiens, UniProt P25025).
T1 construct: expressed in transfected cells; host or cells: Chinese hamster ovary (CHO) cells; membrane preparation
T1 sequence (P25025 1-360): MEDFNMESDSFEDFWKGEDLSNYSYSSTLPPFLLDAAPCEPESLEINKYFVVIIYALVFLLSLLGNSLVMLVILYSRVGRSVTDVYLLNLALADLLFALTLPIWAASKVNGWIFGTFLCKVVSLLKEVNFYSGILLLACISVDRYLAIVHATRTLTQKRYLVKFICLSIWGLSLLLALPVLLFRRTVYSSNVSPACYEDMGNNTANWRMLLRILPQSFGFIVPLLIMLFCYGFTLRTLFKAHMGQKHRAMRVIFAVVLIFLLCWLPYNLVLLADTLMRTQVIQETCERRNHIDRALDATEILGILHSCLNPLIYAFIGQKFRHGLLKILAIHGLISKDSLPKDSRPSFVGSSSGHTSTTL
Nature of the assay: IL-8 receptor binding assay, permissive model (125I IL-8 / 125I Gro-α, CHO membranes). As to conditions: recombinant receptor expressed in Chinese hamster ovary cell membranes, compound 0.01 nM to 100 uM. How it is done:
The IL-8, and GRO-α chemokine inhibitory effects of compounds of the present invention were determined by the following in vitro assay:
[^125I] IL-8 (human recombinant) was obtained from Amersham Corp., Arlington Heights, Ill., with specific activity 2000 Ci/mmol. GRO-α was obtained from NEN-New England Nuclear. All other chemicals were of analytical grade. High levels of recombinant human IL-8 type α and β receptors were individually expressed in Chinese hamster ovary cells as described previously (Holmes, et al., Science, 1991, 253, 1278). The Chinese hamster ovary membranes were homogenized according to a previously described protocol (Haour, et al., J Biol Chem., 249 pp 2195-2205 (1974)). Except that the homogenization buffer was changed to 10 mM Tris-HCL, 1 mM MgS04, 0.5 mM EDTA (ethylene-diaminetetra-acetic acid), 1 mMPMSF (α-toluenesulphonyl fluoride), 0.5 mg/L Leupeptin, pH 7.5. Membrane protein concentration was determined using Pierce Co. micro-assay kit using bovine serum albumin as a standard. All assays were performed in a 96-well micro plate format. […] The filter was then dried and counted on the Betaplate liquid scintillation counter. […]

For “N-(2,4-Dichloro-3-carboxy)-N′-(2,3-dichlorophenyl)urea”, the “inhibition in the permissive models for IL-8 receptor inhibition” value was “inactive”.
